Where only a bound is given, the exact number is not on record here.

Data set [1] concerns spontaneous motor activity. The data set is described as follows: Sedation: effects on spontaneous motor activity of rats in novel cages equipped with photocells (number of cage crossings). Format: in vivo. Particulars: rat. An excerpt:
Representative compounds according to the invention have been tested for their effects on spontaneous motor activity occasioned by placing rats in novel cages equipped with photocells in order to determine the number of cage crossings. This is an art-recognised model of the sedation potential of a given test compound.

The test system of data set [2] is apomorphine-induced stereotypy. The data set is described as follows: Extrapyramidal disorders: effect on apomorphine-induced stereotypy in the rat. Format: in vivo. An excerpt:
Representative compounds according to the invention have been tested for their effect on apomorphine-induced stereotypy in the rat. This is an art-recognised model of the potential to induce extrapyramidal side-effects.

Data set [3] has as its target T1, human dopamine D4 receptor subtype (Homo sapiens, UniProt P21917).
T1 sequence (P21917 1-419): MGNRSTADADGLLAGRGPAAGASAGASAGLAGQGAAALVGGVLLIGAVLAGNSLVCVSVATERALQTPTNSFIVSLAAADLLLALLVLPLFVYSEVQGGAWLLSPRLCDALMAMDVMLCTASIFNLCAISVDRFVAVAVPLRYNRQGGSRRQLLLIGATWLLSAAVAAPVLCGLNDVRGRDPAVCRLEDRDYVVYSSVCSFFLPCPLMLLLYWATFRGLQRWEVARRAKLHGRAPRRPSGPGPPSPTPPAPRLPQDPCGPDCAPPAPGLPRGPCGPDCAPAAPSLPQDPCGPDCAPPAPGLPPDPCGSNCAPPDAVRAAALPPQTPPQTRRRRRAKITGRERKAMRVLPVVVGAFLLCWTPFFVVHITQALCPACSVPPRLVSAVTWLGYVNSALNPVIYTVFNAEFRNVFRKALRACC
The data set is described as follows: [3H]-Spiperone binding (displacement), human dopamine D4 receptor subtype. The conditions noted are these: selectivity ratio from Ki values for D4 and D2 subtypes.

In data set [4] the target is T2, human dopamine D2 receptor subtype (Homo sapiens, UniProt P14416).
T2 construct: expressed in transfected cells
T2 sequence (P14416 whole entry): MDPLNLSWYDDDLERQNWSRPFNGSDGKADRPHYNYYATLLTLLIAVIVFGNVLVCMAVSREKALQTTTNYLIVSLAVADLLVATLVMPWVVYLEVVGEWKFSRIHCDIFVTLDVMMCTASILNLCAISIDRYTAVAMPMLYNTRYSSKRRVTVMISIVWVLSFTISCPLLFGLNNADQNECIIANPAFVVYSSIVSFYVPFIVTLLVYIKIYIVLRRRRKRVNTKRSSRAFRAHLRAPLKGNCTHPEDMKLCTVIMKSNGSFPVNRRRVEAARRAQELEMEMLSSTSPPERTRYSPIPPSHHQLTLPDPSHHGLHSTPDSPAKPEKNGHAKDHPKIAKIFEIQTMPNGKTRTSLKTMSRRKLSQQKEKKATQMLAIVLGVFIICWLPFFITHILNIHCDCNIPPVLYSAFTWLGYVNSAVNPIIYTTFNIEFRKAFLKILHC
The experiment in a line: [3H]-Spiperone binding (displacement), human dopamine D2 receptor subtype. The conditions noted are these: human dopamine D2 receptor subtype expressed in clonal cell lines.

As to `O=C(CCCN1CCC(O)(c2ccc(Cl)cc2)CC1)c1ccc(F)cc1` [haloperidol, reference compound], the “sedation (spontaneous motor activity)” value in data set [1] (dose of 1 mg/kg) is recorded as “marked sedation”. The “potential to elicit extrapyramidal side-effects (apomorphine-induced stereotypy)” value in data set [2] (doses of 0.5 and 1.0 mg/kg) is recorded as “significant potential to elicit extrapyramidal side-effects”.

For `Clc1ccc(N2CCN(Cc3c[nH]c4ncccc34)CC2)cc1` [Example 5, 3-(4-[4-Chlorophenyl]piperazin-1-yl)methyl-1H-pyrrolo [2,3-b]pyridine], in data set [1] (doses of up to 10-30 mg/kg), the “sedation (spontaneous motor activity)” value is recorded as “no evidence for sedation”. Further, the “potential to induce extrapyramidal side-effects (apomorphine-induced stereotypy)” value in data set [2] (doses up to 1.0 mg/kg) was “no potential to induce the extrapyramidal side-effects”.

As for `COc1ccc(N2CCN(Cc3c[nH]c4ncccc34)CC2)cc1` [Example 2, 3-(4-[4-Methoxyphenyl]piperazin-1-yl)methyl-1H-pyrrolo [2,3-b]pyridine], the “D4:D2 ratio” value in data set [3] is reported as “greater than 1150”. Also, in data set [4], the Ki was > 1500 nM.

A word on the Ki: it is the dissociation constant of the complex between target and ligand, obtained from inhibition or displacement.
